Data as given in patent publication US20130096067A1, “DROSOPHILA TUMOR STEM CELL MODEL AND USES THEREOF” (priority 2011, published 2013).

Test system: Raf-1^gof intestinal tumors
Details: for Log2 (fold) of luciferase activity relative to DMSO controls / Fold (luciferase activity relative to DMSO controls): ICCB compounds fed in vials to flies with one-day old Raf-1^gof tumors; for Log2 (fold) of luciferase activity relative to DMSO controls / Fold (luciferase activity relative to DMSO controls) / Log2 (fold) (luciferase activity, log2 of the fold difference relative to DMSO controls) / Fold (luciferase activity, fold difference relative to DMSO controls): assessed three days later; for Fold (luciferase activity relative to DMSO controls) / Fold (luciferase activity, fold difference relative to DMSO controls): averaged from multiple wells; for Log2 (fold) (luciferase activity, log2 of the fold difference relative to DMSO controls) / Fold (luciferase activity, fold difference relative to DMSO controls): screen of 480 ICCB compounds in vials, compounds fed to flies with one-day old Raf-1^gof tumors, esg-Gal4 luciferase
Throughout, for Fold (luciferase activity relative to DMSO controls): test concentration or dose not given here.
Throughout, for Fold (luciferase activity, fold difference relative to DMSO controls): test concentration or dose not given here.
Throughout, for Log2 (fold) (luciferase activity, log2 of the fold difference relative to DMSO controls): test concentration or dose not given here.
Throughout, for Log2 (fold) of luciferase activity relative to DMSO controls: test concentration or dose not given here.

| Structure (SMILES) | Log2 (fold) of luciferase activity relative to DMSO controls | Fold (luciferase activity relative to DMSO controls) [fold] | Log2 (fold) (luciferase activity, log2 of the fold difference relative to DMSO controls) | Fold (luciferase activity, fold difference relative to DMSO controls) | Fold (Table 3 summary of hits, Screen ICCB, luciferase relative to DMSO, fed three consecutive days in vials) [fold] |
| --- | --- | --- | --- | --- | --- |
| CCCCCCCCCCC/C=C\C(C)(C)/C=C\CCCC(=O)O [7,7-DIMETHYLEICOSADIENOIC ACID] | 0.021 | 1.014 |  |  |  |
| CCCCC/C=C\C/C=C\CC1OC1C/C=C\CCCC(=O)O (stereo not drawn) [8,9-EPOXYEICOSATRIENOIC ACID] |  |  | −0.625 | 0.649 |  |
| CCCCC[C@H](O)/C=C/[C@@H]1[C@H](C/C=C\CCCC(=O)O)[C@@H](O)C[C@H]1O [8-EPI-PROSTAGLANDIN F2a] |  |  | −0.657 | 0.634 |  |
| COCc1nc2c([nH]1)c(=O)n(C)c(=O)n2CC(C)C [8-methoxymethyl-IBMX] | 0.006 | 1.004 |  |  |  |
| CCCCC/C=C\C=C\[C@@H](O)CCCCCCCC(=O)O [9(S)-HODE] |  |  | −0.398 | 0.759 |  |
| CCCCC/C=C\C=C\[C@H](CCCCCCCC(=O)O)OO [9(S)-HPODE] |  |  | −0.294 | 0.816 |  |
| CCCCCCCC/C=C\CCCCCCCC(N)=O [9,10-OCTADECENOAMIDE] |  |  | −0.454 | 0.730 |  |
| CC1=C(/C=C/C(C)=C\C=C\C(C)=C\C(=O)O)C(C)(C)CCC1 [9-CIS RETINOIC ACID] |  |  | −0.578 | 0.670 |  |
| CCCCC[C@H](O)/C=C/[C@@H]1[C@@H](C/C=C\CCCC(=O)O)[C@@H](O)C[C@@H]1O [9a,11b-PROSTAGLANDIN F2] |  |  | −0.294 | 0.815 |  |
| CCCCC[C@H](O)/C=C/[C@@H]1[C@@H](C/C=C\CCCC(=O)O)[C@H](O)C[C@H]1O [9b,11a-PROSTAGLANDIN F2] | 0.062 | 1.044 |  |  |  |
| CC[C@@]1(O)C(=O)OCc2c1cc1n(c2=O)Cc2cc3cc(O)ccc3nc2-1 [10-hydroxycamptothecin, reference compound] |  |  | −0.930 | 0.525 | 0.525 |
| CCCCC/C=C\CC1OC1C/C=C\C/C=C\CCCC(=O)O (stereo not drawn) [11,12-EPOXYEICOSATRIENOIC ACID] | −0.052 | 0.965 |  |  |  |
| CCCCC/C=C\C[C@@H](O)/C=C/C=C\C/C=C\CCCC(=O)O [12(R)-HETE] |  |  | −0.219 | 0.859 |  |
| CCCCC/C=C\C[C@H](O)/C=C/C=C\C/C=C\CCCC(=O)O [12(S)-HETE] | 0.055 | 1.039 |  |  |  |
| CCCCC/C=C\C[C@@H](/C=C/C=C\C/C=C\CCCC(=O)O)OO [12(S)-HPETE] |  |  | −0.571 | 0.673 |  |
| COCCCCCCCCCCCC(=O)O [12-METHOXYDODECANOIC ACID] |  |  | −0.320 | 0.801 |  |
| CCCCC[C@H](O)/C=C/C=C\CCCCCCCC(=O)O [13(S)-HODE] | −0.141 | 0.907 |  |  |  |
| CCCCC[C@@H](/C=C/C=C\CCCCCCCC(=O)O)OO [13(S)-HPODE] | 0.309 | 1.239 |  |  |  |
| CCCCC[C@H](O)CC[C@H]1[C@H](O)CC(=O)[C@@H]1CCCCCCC(=O)O [13,14-DIHYDRO-PGE1] | 0.587 | 1.502 |  |  |  |
